Assay: Radiochemical purity (RCP) of 99mTc-depreotide kits with gentisic acid, reversed phase HPLC
Format: physicochemical
Conditions: when included in formulated kits
Protocol: Lyophilized kit vials were prepared containing depreotide, GA, and other components as described in Table 1. Formulations were adjusted to pH 7.4 or 8.5 (as noted) prior to lyophilization.

## O=C(O)c1cc(O)ccc1O [gentisic acid, Gentisic acid]
  effect on radiolabelling yield and stability of 99mTc-depreotide: decreases the radiolabelling yield and the stability

— patent publication US6989138B2, “Stabilization of radiopharmaceutical compositions using hydrophilic thioethers and hydrophilic 6-hydroxy chromans” (Diatide, Inc., priority 2000, dated 2006)
